Experimental data as given in patent publication US9387219B2, “Edible composition” (Conopco, Inc., priority 2011, dated 2016).

Legend:
GLUT2 = molecular target: T1, GLUT2 (Homo sapiens, UniProt P11168); experiment: Glucose transport inhibitor cell screening assay, 25 mM D-glucose for 30 minutes (GLUT2 inhibition); format: cell-based; conditions: differentiated Caco-2 monolayer, 30 minutes, active at 150 uM
T1 construct: endogenous in cells; host or cells: differentiated Caco-2 cell monolayers (ATCC)
T1 sequence (P11168 1-524): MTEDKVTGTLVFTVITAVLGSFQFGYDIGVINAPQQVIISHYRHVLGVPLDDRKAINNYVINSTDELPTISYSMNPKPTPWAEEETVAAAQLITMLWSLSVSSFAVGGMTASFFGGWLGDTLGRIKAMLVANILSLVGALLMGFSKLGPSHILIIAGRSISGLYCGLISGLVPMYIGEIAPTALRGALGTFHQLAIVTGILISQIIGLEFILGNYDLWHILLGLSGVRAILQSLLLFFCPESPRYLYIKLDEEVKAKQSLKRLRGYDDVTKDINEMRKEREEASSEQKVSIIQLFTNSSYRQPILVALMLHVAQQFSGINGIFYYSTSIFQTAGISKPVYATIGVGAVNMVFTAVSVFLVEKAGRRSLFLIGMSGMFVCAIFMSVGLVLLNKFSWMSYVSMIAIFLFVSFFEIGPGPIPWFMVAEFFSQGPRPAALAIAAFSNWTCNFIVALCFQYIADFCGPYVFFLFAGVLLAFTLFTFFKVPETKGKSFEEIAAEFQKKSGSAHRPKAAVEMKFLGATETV
Method: (§1) Human epithelial colorectal adenocarcinoma (Caco-2) cells were obtained from the American Type Culture Collection (ATCC) and cultured in Growth Medium consisting of Dulbecco's modified Eagle's medium (containing Glutamax-1, 4.5 g/L D-glucose and 25 mM 4-(2-hydroxyethyl)-1-piperazine ethanesulphonic acid (Hepes) (Invitrogen)), 10% foetal bovine serum (Sigma), 1% non-essential amino acids (Invitrogen) and 1 mM sodium pyruvate (Sigma)). The cells were routinely passaged at approximately 80% confluence using TrypLE™ Express Stable Trypsin-Like Enzyme (Invitrogen) to detach the cells, and seeded at approximately 114 cells per mm^2 in fresh tissue culture flasks. Only cells between the passage numbers 45 and 49 were used for experiments.
(§2) Corning® HTS Transwell® 96 well permeable insert supports (Sigma) were collagen coated with 40 μl of 50 μg/ml rat tail collagen type I (BD Biosciences) in 0.02 M acetic acid for one hour at room temperature under sterile conditions. The inserts were washed twice in phosphate buffered saline (PBS (Invitrogen)) and the Caco-2 cells seeded into the inserts at 9.6×10^5 cell/ml (75 μl per insert) in Growth Medium and 30 ml of Growth Medium added to the feeder plate below. The cells were left to attach to the collagen matrix and form monolayers over 48 hours at 37° C., 5% CO2. Both inserts and feeder plate were washed in PBS and the cells incubated with BD Entero-STIM™ Enterocyte Differentiation Medium containing MITO+™ Serum Extender solution (both BD Biosciences), 75 μl per insert and 30 ml in the feeder plate, for a further 48 hours at 37° C., 5% CO2.
(§3) Differentiated cell monolayers were washed gently in Dulbecco's Phosphate Buffered Saline containing CaCl2 and MgCl2 (PBS(+) (Invitrogen)) and the inserts transferred to a new Corning® HTS Transwell®-96 well receiver plate (Sigma). The cells were incubated with fresh PBS(+) (75 μl per insert and 225 μl per well) for 60 minutes at 37° C., 5% CO2. The PBS(+) was gently aspirated and replaced with 75 μl per insert of either 5 mM D-glucose (Sigma)±test active or 25 mM D-glucose±test active in triplicate and 225 μl per well of PBS(+) quickly added to each well. The 5 mM glucose wells and the 25 mM glucose wells were incubated at 37° C., 5% CO2 for 15 minutes and 30 minutes, respectively. Details of all the actives tested are found in table 1. The cell inserts were transferred to a new receiver plate, the supernatant gently aspirated from the cells and replaced with 100 μl of 100 μM of Lucifer Yellow (Sigma) solution to confirm the integrity of the monolayers. 225 μl of PBS(+) was added to each well and incubated at 37° C., 5% CO2 for 1 hour. The cell inserts were then discarded and the permeability of the membranes to Lucifer Yellow checked by measuring the fluorescence of the samples at 485 nm (excitation) and 530 nm (emission) on a Spectramax Gemini EM fluorescence microplate reader.
(§4) The amount of glucose transported across the cell monolayers was measured using a glucose assay based on Invitrogen's Amplex Red Glucose/Glucose oxidase Assay Kit. Briefly, 50 μl of each test sample was transferred to a black sided/clear bottom 96-well plate (Greiner Bio-One) to which 100 μl of reaction buffer (0.5 μl 10 mM Ampliflu Red, 1 μl 10 U/ml Horse Radish peroxidase, 1 μl 100 U/ml glucose oxidase and 97.5 μl PBS (all Sigma)) was added. After 10 minutes incubation at room temperature, the fluorescence of the samples were measured at 530 nm (excitation) and 590 nm (emission) on a Spectramax Gemini EM fluorescence microplate reader and the glucose concentration extrapolated from a standard curve.
(§5) At higher D-glucose concentrations, the SGLT1 transporter becomes saturated and consequently the majority of glucose transport across the monolayer is driven by the low affinity, high capacity GLUT2 transporter that is targeted to the apical membrane only following an initial SGLT1-dependent transport of glucose.

SGLT1 = molecular target: T2, SGLT1 (Homo sapiens, UniProt P13866); experiment: Glucose transport inhibitor cell screening assay, 5 mM D-glucose for 15 minutes (SGLT1 inhibition); format: cell-based; conditions: for Class (assigned class of transporter inhibited): assigned from % inhibition at 5 mM and 25 mM D-glucose in Caco-2 cells; for SGLT1 inhibitory activity (in words): Caco-2 cell model
T2 construct: endogenous in cells; host or cells: differentiated Caco-2 cell monolayers (ATCC)
T2 sequence (P13866 1-664): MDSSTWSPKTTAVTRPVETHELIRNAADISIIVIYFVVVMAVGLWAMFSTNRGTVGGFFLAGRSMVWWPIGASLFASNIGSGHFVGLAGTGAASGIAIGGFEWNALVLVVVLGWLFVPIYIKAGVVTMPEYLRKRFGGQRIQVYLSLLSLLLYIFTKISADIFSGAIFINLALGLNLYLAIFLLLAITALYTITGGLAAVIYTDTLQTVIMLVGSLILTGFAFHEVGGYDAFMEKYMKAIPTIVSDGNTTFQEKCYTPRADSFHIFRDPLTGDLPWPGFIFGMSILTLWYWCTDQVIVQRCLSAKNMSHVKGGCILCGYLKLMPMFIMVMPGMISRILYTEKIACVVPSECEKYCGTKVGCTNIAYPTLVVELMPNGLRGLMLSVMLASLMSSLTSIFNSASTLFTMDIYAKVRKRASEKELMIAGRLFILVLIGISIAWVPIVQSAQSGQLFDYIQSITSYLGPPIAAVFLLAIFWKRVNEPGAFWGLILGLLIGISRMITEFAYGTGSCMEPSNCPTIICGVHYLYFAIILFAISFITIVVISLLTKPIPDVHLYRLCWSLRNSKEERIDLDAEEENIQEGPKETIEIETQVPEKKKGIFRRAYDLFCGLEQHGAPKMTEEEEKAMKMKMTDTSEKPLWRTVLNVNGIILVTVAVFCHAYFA
Method: as §1, §2, §3, §4, §5

[1] = differentiated Caco-2 monolayer, 5 mM D-glucose, 15 minutes, active at 300 uM

SMILES	% Glucose Transport inhibition 25 mM (GLUT2)	Class (assigned class of transporter inhibited) (SGLT1)	inhibition at 300 µM (SGLT1; [1])	inhibition at 150 µM (GLUT2)	SGLT1 inhibitory activity (in words) (SGLT1; 5 mM D-glucose)	% Glucose Transport inhibition 5 mM (SGLT1; [1])
O=c1cc(-c2ccc(O)cc2)oc2cc(OC3O[C@H](CO)[C@@H](O)[C@H](O)[C@H]3O)cc(O)c12 (stereo partly drawn) [Apigenin-7-glucoside]	12.81%	–	–	–	–	–
O=c1cc(-c2ccc(O)cc2)oc2cc(O)cc(O)c12 [Apigenin]	–	GLUT2 (GLUT2 inhibitors having ≧20% inhibition at both 5 mM and 25 mM D-glucose levels)	56.8%	49.3%	–	–
OC[C@H]1O[C@@H](Oc2cc3c(O)cc(O)cc3[o+]c2-c2ccc(O)c(O)c2)[C@H](O)[C@@H](O)[C@@H]1O [Cyanidin-3-glucoside]	–	SGLT1	–	–	inhibition of SGLT1	–
C[C@@H]1O[C@@H](OC[C@H]2O[C@@H](Oc3cc4c(O)cc(O)cc4[o+]c3-c3ccc(O)c(O)c3)[C@H](O)[C@@H](O)[C@@H]2O)[C@H](O)[C@H](O)[C@H]1O [Cyanidin-3-rutinoside]	–	None	–	–	absence of SGLT1 inhibitory activity	–
Oc1cc(O)c2cc(O)c(-c3ccc(O)c(O)c3)[o+]c2c1 [Cyanidin]	–	–	7.93%	3.21%	–	–
O=c1c(-c2ccc(O)cc2)coc2c([C@@H]3O[C@H](CO)[C@@H](O)[C@H](O)[C@H]3O)c(O)ccc12 [Daidze in-8-C-glucoside]	–	SGLT1	–	–	inhibition of SGLT1	–
O=c1c(-c2ccc(O)cc2)coc2cc(O[C@@H]3O[C@H](CO)[C@@H](O)[C@H](O)[C@H]3O)ccc12 [Daidzein-7-glucoside]	7.23%	SGLT1	–	–	inhibition of SGLT1	35.03%
OC[C@H]1O[C@@H](Oc2cc3c(O)cc(O)cc3[o+]c2-c2cc(O)c(O)c(O)c2)[C@H](O)[C@@H](O)[C@@H]1O [Delphinidin-3-glucoside]	–	SGLT1	–	–	inhibition of SGLT1	–
Oc1cc(O)c2cc(O)c(-c3cc(O)c(O)c(O)c3)[o+]c2c1 [Delphinindin]	15.86%	–	–	–	–	–
O=C1C[C@@H](c2ccc(O)c(O)c2)Oc2cc(O[C@@H]3O[C@H](CO)[C@@H](O)[C@H](O)[C@H]3O)cc(O)c21 [Eriodictiol-7-O-glucoside]	4.98%	SGLT1	–	–	inhibition of SGLT1	–
O=c1c(-c2ccc(O)cc2)coc2cc(O)cc(O)c12 [Genistein]	–	GLUT2 (GLUT2 inhibitors having ≧20% inhibition at both 5 mM and 25 mM D-glucose levels)	56.5%	57.7%	–	–
COc1ccc([C@@H]2CC(=O)c3c(O)cc(O)cc3O2)cc1O [Hesperetin]	–	GLUT2 (GLUT2 inhibitors having ≧20% inhibition at both 5 mM and 25 mM D-glucose levels)	72.3%	74.4%	–	–
O=c1c(O)c(-c2ccc(O)cc2)oc2cc(O)cc(O)c12 [Kaempferol]	–	GLUT2 (GLUT2 inhibitors having ≧20% inhibition at both 5 mM and 25 mM D-glucose levels)	26%	32.4%	–	–
O=c1cc(-c2ccc(O)c(O)c2)oc2cc(O)cc(O)c12 [Luteolin]	–	GLUT2 (GLUT2 inhibitors having ≧20% inhibition at both 5 mM and 25 mM D-glucose levels)	77.4%	63.2%	–	–
COc1cc(-c2[o+]c3cc(O)cc(O)c3cc2O[C@@H]2O[C@H](CO)[C@H](O)[C@H](O)[C@H]2O)cc(OC)c1O [Malvidin 3-O-Galactoside]	10.41%	None	–	–	absence of SGLT1 inhibitory activity	–
COc1cc(-c2[o+]c3cc(O)cc(O)c3cc2O[C@@H]2O[C@H](CO)[C@@H](O)[C@H](O)[C@H]2O)cc(OC)c1O [Malvidin-3-O-glucoside]	10.91%	SGLT1	–	–	inhibition of SGLT1	–
Oc1ccc(-c2[o+]c3cc(O)cc(O)c3cc2O)cc1 [Pelargonidin]	–	–	4.07%	–	–	–
O=C(CCc1ccc(O)cc1)c1c(O)cc(O)cc1O [Phloretin, reference compound]	–	–	–	76.1%	–	–
O=c1c(O[C@@H]2O[C@H](CO)[C@@H](O)[C@H](O)[C@H]2O)c(-c2ccc(O[C@@H]3O[C@H](CO)[C@@H](O)[C@H](O)[C@H]3O)c(O)c2)oc2cc(O)cc(O)c12 [Quercetin-3,4′-diglucoside]	–	None	–	–	destroys this inhibitory action	–
OC[C@H]1O[C@@H](Oc2ccc(O)cc2)[C@H](O)[C@@H](O)[C@@H]1O [arbutin]	–	–	–	–	lack of SGLT1 inhibitory activity	–
